Measured values from the NIST ThermoML archive (doi:10.1021/je050092d).
Numbers after ± are expanded uncertainties.

Test: Molar enthalpy of transition or fusion
Settings: Adiabatic calorimetry

SMILES: CCCCCCCCCCCCCCCCCC(=O)OCC(COC(=O)CCCCCCCCCCCCCCCCC)OC(=O)CCCCCCCCCCCCCCCCC [glycerol trioctadecanoate]
- Molar enthalpy of transition or fusion (Crystal): 47.22 ± 0.43 kcal/mol
- Molar enthalpy of transition or fusion (Metastable crystal): 30.9 ± 0.43 kcal/mol
